Measurements from US5498522A, “Methods for the use of spermidine/spermine N^1 -acetyltransferase as a prognostic indicator and/or a tumor response marker” (priority 1993, dated 1996).

Experiments:
[1] = tested on: polyamine pools of host tissue; test: polyamine pools in host tissue of treated mice; type: in vivo, mouse; set-up: unit not given here; conditions: 40 mg/kg
[2] = tested on: Ebey human melanoma cells; test: growth of Ebey melanoma cells in-vitro (FIG. 5); type: cell-based; conditions: 10 μM BESPM, 48 hours
Description: As mentioned previously, cells from malignant solid tumor respond to polyamine analog therapy heterotypically. SSAT induction and antitumor response may vary not only among the solid tumor tissue type, but also with the clonal line of tumor of a particular solid tissue type. However, a correlation between the level of induction of SSAT and the potency of antitumor response has been observed in tumors of a particular solid tissue type. For example, seven human melanoma cell lines were assayed in-vitro for their response, as determined by cell growth and level of SSAT induction, to 10 μM BESPM at 48 hours post-treatment. As summarized in FIG. 5, growth among the cell lines decreases as SSAT induction increases.

| Compound | PUT pool ([1]; kidney, 2 wks post-treatment) | SPD pool ([1]; kidney, 2 wks post-treatment) | SPM pool ([1]; kidney, 2 wks post-treatment) | PUT pool ([1]; kidney, 16 hrs post-treatment) | SPD pool ([1]; kidney, 16 hrs post-treatment) | SPM pool ([1]; kidney, 16 hrs post-treatment) | PUT pool ([1]; liver, 2 wks post-treatment) | SPD pool ([1]; liver, 2 wks post-treatment) | SPM pool ([1]; liver, 2 wks post-treatment) | PUT pool ([1]; liver, 16 hrs post-treatment) | SPD pool ([1]; liver, 16 hrs post-treatment) | SPM pool ([1]; liver, 16 hrs post-treatment) | growth inhibition (FIG. 5) [2] |
| --- | --- | --- | --- | --- | --- | --- | --- | --- | --- | --- | --- | --- | --- |
| CCNCCCNCCCNCCCNCC [BENSPM, N^1,N^11 -bis(ethyl)norspermine] | 20/20 | 210/210 | 360/370 | 100/40 | 100/100 | 260/250 | 20/20 | 530/530 | 400/330 | 90/100 | 80/90 | 170/200 | – |
| CCNCCCNCCCCNCCCNCC [BESPM, N^1,N^12-bis(ethyl)spermine] | – | – | – | – | – | – | – | – | – | – | – | – | greatest growth inhibition |
